US10076522B2, “Systems and methods for treating bacterial infection” (priority 2016, dated 2018)
Values after ≈ are worked out from the molar mass of the structure shown. “Also recorded” adds a separate entry of the source.

Legend:
clinical [1] = conditions: human, in vivo, 1 mg/kg
[2] = both, human, in vivo
Description: A second single-dose ECG study was conducted on healthy human volunteers using weight-based doses of 0.4 mg/kg and 0.8 mg/kg iclaprim base infused over 30 minutes and 1.6 mg/kg infused over 60 minutes.

[3] = human, in vivo
[4] = target: T1, hERG-mediated potassium current (Homo sapiens, UniProt Q12809); experiment: Inhibition of hERG-mediated potassium current in transfected CHO cells; type: cell-based; conditions: reversible inhibition
T1 construct: expressed in transfected cells; host or cells: CHO (Chinese Hamster Ovary) cells

cSSSIs = experiment: Phase III ASSIST trials, efficacy in cSSSI; type: in vivo, human; conditions: 0.8 mg/kg over 0.5 hr q12h IV
Source text: Without wishing to be bound by a particular theory, one observed disadvantage of the weight-based dosing in the previous Phase III studies is that the post-antibiotic effect achieved by the weight-based doses was not enough to sustain the T>MIC between doses. Sufficient efficacy might be achieved by increasing the amount of iclaprim administered to the subject. However, as discussed above, simply increasing the weight-based dose of iclaprim risks causing QTc prolongation.

[5] = 13-week toxicology study in the rat, AUC at NOAEL; conditions: in vivo
[6] = 13-week toxicology study in the marmoset, AUC at NOAEL; conditions: monkey, in vivo
[7] = in vivo
[8] = PK of IV iclaprim in subjects with moderate hepatic impairment; type: in vivo, human; conditions: moderate hepatic impairment (Child-Pugh grade B)
Description: (§1) For example, the PK profile of 0.8 mg/kg iclaprim administered by IV was investigated in 8 subjects with mild to moderate obesity (body mass index or “BMI” 30-40) and in 8 subjects with severe obesity (BMI>40). […] Linear regression analysis indicated a strong linear relationship between AUC (and Cmax) and BMI. Thus it was clear that the body composition of the subject affected the pharmacokinetics of IV administered iclaprim, with a greater percentage of body fat causing an increase in AUC and Cmax. […] Thus there is a risk of overdosing subjects with moderate hepatic impairment, which can be mitigated by reducing the IV iclaprim dose by about 50%.

[9] = tested on: acute bacterial skin and skin structure infections (ABSSSIs) suspected or confirmed to be due to Gram-positive pathogens; experiment: Phase III REVIVE-1 study, efficacy of fixed dose iclaprim versus vancomycin; type: in vivo, human; conditions: ITT; for non-inferiority (10% margin) compared to vancomycin: 80 mg over 2 hr q12h IV
Description: Subjects were evaluated daily up to ETP, then every 48 to 72 hours through the end of treatment. If the last dose of study drug fell on a day when an evaluation was not planned, an additional evaluation visit was performed on that day (i.e., all EOT evaluations were performed on the last day [+2 days] of drug dose).
The infusion time and duration of treatment for both groups was 2 hours and 5 days (minimum duration) to 14 days (maximum duration), respectively.
The primary endpoint for clinical response (defined as the reduction in lesion size ≥20% compared to baseline) was evaluated in all randomized subjects at ETP (48 to 72 hours post-first dose). […] In addition, clinical outcome was evaluated by the investigator at EOT and TOC (7 to 14 days post EOT). The assessments of clinical outcome was categorized as cure, failure, or indeterminate.
Iclaprim was administered at a dose of 80 mg in 500 mL normal saline, infused over 2 hours q12h (every 12 hours) for 5 to 14 days. For subjects with moderate hepatic impairment (Child-Pugh Class B), iclaprim was administered at a dose of 40 mg in 500 mL normal saline, infused over 2 hours q12h for 5 to 14 days.
Dosing interval was every q12 h, q24 h, q48 h, or dosed by daily level based on creatinine clearance.
The primary efficacy endpoint was the proportion of randomized subjects who achieved an early clinical response (defined as reduction in the lesion size ≥20% compared to baseline) at 48 to 72 hours (ETP) and was evaluated among all randomized subjects (ITT population).
The NI bound were 10%. […] Equivalently, if the lower bound of the two-sided 95% CI for P1-P2 was greater than −0.100 based on the Z test with unpooled variance estimate, NI was concluded.

clinical [10] = conditions: human, in vivo, iv, 0.8 mg/kg, mean Cmax
Description: as §1

[11] = Exposure to iclaprim in Phase I studies; conditions: human, plasma, intravenous, HMR 01-014, Multiple Dose Q12H × 9 days, arithmetic mean
S. aureus = experiment: MIC90 in worldwide surveillance studies; type: cell-based; conditions: Staphylococcus aureus
Source text: The ASSIST-1 and ASSIST-2 studies used sparse sampling with a population PK analysis. The post-hoc estimates of the individual subject PK parameters were used to simulate the plasma iclaprim concentration-time profiles for each subject and, from those profiles, the corresponding values for Cmaxss, AUC0-24hss, AUC/MIC, and T>MIC.

clinical [12] = conditions: human, in vivo
[13] = Single-dose ECG study in healthy human volunteers (1.6 and 3.2 mg/kg over 30 minutes); type: in vivo
Description: Based on this, a single-dose ECG-study was conducted in healthy human volunteers, where 1.6 mg/kg and 3.2 mg/kg iclaprim was infused over 30 minutes. […] Maximal increases coincided with Cmax levels and were rapidly reversible. Weight-based dosing with 1.6 mg/kg was thus assessed as acceptable for clinical purposes, whereas weight-based dosing at 3.2 mg/kg was associated with relevant QTc prolongations (>60 msec) and nonspecific T-wave alterations, and was not used for further clinical studies.

[14] = 150 mg, 150 mg/EtOH & NS (20 min)

T1 sequence (Q12809 whole entry): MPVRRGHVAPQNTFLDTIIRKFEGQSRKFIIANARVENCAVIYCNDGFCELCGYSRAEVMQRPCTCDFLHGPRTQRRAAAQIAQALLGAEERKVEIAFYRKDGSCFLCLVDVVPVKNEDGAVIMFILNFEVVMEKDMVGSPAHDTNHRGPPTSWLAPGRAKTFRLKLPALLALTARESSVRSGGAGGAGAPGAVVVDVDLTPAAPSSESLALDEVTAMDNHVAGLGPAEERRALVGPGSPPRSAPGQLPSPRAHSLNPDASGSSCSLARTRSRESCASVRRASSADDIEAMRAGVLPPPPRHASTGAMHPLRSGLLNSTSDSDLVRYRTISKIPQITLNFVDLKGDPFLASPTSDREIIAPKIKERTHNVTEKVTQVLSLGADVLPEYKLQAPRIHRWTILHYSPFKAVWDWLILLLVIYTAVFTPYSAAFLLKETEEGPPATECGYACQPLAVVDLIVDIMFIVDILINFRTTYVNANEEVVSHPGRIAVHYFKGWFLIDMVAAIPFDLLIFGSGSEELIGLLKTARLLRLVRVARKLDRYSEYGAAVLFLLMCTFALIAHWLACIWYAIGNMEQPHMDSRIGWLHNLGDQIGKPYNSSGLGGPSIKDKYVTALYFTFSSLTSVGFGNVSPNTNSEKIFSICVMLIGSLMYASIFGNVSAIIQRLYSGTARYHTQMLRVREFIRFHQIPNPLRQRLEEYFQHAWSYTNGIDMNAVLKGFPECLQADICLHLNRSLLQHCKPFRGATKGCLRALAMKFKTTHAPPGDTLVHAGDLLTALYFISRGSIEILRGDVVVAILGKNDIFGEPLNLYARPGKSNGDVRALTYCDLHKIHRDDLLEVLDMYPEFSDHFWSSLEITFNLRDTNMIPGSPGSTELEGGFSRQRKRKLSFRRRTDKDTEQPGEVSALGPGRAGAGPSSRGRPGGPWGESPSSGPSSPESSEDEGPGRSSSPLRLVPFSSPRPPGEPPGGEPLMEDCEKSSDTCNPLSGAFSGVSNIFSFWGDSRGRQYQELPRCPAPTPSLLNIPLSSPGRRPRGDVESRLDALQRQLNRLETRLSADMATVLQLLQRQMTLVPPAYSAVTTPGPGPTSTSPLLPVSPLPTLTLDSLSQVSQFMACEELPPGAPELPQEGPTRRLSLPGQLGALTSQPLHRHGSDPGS

COc1cc(Cc2cnc(N)nc2N)c2c(c1OC)OC(C1CC1)C=C2 (racemic) [Iclaprim]
Cmax (clinical [1]): 792 ng/mL
post-infusion QTcF prolongation from baseline (any subject) [2]: ≤ 60 ms
adverse events related to QTc prolongation [3]: 4 cases
IC50 [4]: 900 nM
efficacy, non-inferiority (−10% margin) to linezolid (cSSSIs): did not meet the FDA criteria of non-inferiority to linezolid; also recorded: failed to show efficacy
AUC at 13 week ([5]; female): 20400 ng·h/mL
AUC at 13 week ([5]; male): 7260 ng·h/mL
AUC at 13 week ([6]; female): 26600 ng·h/mL
AUC at 13 week ([6]; male): 26900 ng·h/mL
dose-related increase in QTc [7]: did not
increase in AUC [8]: 2.5 fold
increase in Cmax [8]: 1.4 fold
non-inferiority (10% margin) compared to vancomycin ([9]; ETP): achieved the primary endpoint of non-inferiority; also recorded: non-inferior
non-inferiority (10% margin) compared to vancomycin ([9]; TOC): achieved NI
Early Clinical Response (ECR), number of subjects ([9]; ETP (48 to 72 hours)): 241
Early Clinical Response (ECR), percent of subjects ([9]; ETP (48 to 72 hours)): 80.9%
Early Clinical Response (ECR), % Difference iclaprim vs vancomycin ([9]; ETP): −0.13%
Clinical cure, number of subjects ([9]; TOC (7 to 14 days after study drug discontinuation)): 251
Clinical cure, % Difference iclaprim vs vancomycin ([9]; TOC): −2.77%
Clinical cure, percent of subjects ([9]; TOC): 84.2%
Cmax (clinical [10]): 854 ng/mL
AUC ([11]; 75 mg, 75 mg/10% PG (20 min)): 1660 ng·h/mL
Cmax ([11]; 75 mg, 75 mg/10% PG (20 min)): 1290 ng/mL
AUC ([11]; 150 mg, 150 mg/10% PG (20 min)): 3600 ng·h/mL
AUC [11, 14]: 3220 ng·h/mL
Cmax ([11]; 150 mg, 150 mg/10% PG (20 min)): 2350 ng/mL
Cmax [11, 14]: 1870 ng/mL
MIC90 (S. aureus): 0.12 µg/mL (≈ 0.339 µM)
AUC (clinical [12]; 0.25 mg/kg): 598 ± 270 ng·h/mL
Cmax (clinical [12]; 0.25 mg/kg): 686 ± 279 ng/mL
AUC (clinical [12]; 0.5 mg/kg): 996 ng·h/mL
AUC (clinical [12]; 1 mg/kg): 1980 ng·h/mL
AUC (clinical [12]; 2 mg/kg): 4040 ng·h/mL
AUC (clinical [12]; 4 mg/kg): 6810 ng·h/mL
Cmax (clinical [12]; 4 mg/kg): 4020 ng/mL
QTc prolongations ([13]; 3.2 mg/kg infused over 30 minutes): > 60 ms
effect on QTc interval ([13]; 1.6 and 3.2 mg/kg infused over 30 minutes, dose-dependent): prolonged the QTc interval
